Where a SMILES comes first, the peptide text is derived from it. Where no end group is shown, it is not given here. The star is where a group is joined. Undecanoyl = CCCCCCCCCCC(=O)*; Octanoyl = CCCCCCCC(=O)*
Experiments:
[1] = system: azole resistant strains of C. albicans; type: cell-based; details: azole resistant strains of C. albicans
Method: (§1) The fractional inhibitory concentration (FIC) index was used to determine the synergy between antimicrobial agents. Peptide MICs against test microorganisms were determined three times on separate occasions. […]
All strains are azole resistant clinical isolates from Prof. Ted White (Seattle Biotechnology Research Institute, Seattle)

P. aeruginosa = type: cell-based; details: drug resistant P. aeruginosa
Method: as §1

Lipoteichoic acid (LTA) = assay: LTA binding assay; details: FIG. 7
From the text: Lipoteichoic acid (LTA) is a common cell wall component of gram-positive bacteria including organisms such as S. aureus and P. acnes. The release of LTA during infection can lead to the release of mediators of the host inflammatory response which in turn can result in sepsis (septic shock). For example, when injected into animals, LTA can elicit many of the characteristic features of septic shock, including cytokine production, leukocytopenia, circulatory failure, multiple-organ dysfunction syndrome, and mortality.

MRSA = assay: Kill curve in 10% sheep serum-phosphate buffer against MRSA; type: cell-based, S. aureus; details: 10% serum / biological environments
S. aureus [2] = assay: Kill curve in vaginal simulant, S. aureus; type: cell-based; details: FIG. 2
From the text: (§2) An additional embodiment of the invention is directed towards methods of treating sexually transmitted diseases (STDs). Many of the fungal species responsible for STDs are likely to be inhibited or killed by application of one or more of the inventive hexapeptides of Table 1. Examples of such species include C. albicans, C. glabrata, and C. tropicalis. The inventive hexapeptide/s may additionally be used against other agents responsible for STDs including viruses and bacteria. The hexapeptide/s can be administered to an STD patient by any acceptable method, such as topical, oral, or systemic delivery. The hexapeptide/s can be administered in a single dose, in multiple doses, or as a continuous delivery. The hexapeptide/s can be administered in any acceptable form, such as a cream, gel, or liquid. An indication of the likelihood of activity of the hexapeptides of the present invention in the vaginal environment is shown in FIG. 2, where the activity of SEQ ID NO:55 is shown in killing curves against C. Albicans and S. aureus.

C. albicans = assay: Kill curve in vaginal simulant, C. albicans; type: cell-based; details: FIG. 2
From the text: as §2

[3] = design: species or system Sprague-Dawley rats; details: rat, in vivo
From the text: Each wound observed at each dressing change and the wound surface and tissue reaction assessed. There were 5 parameters of wound status that were checked: • i. Wound Film Security—Was the adhesive film used to cover the wound still completely adherent to the skin around the wound? • ii. Wound Surface—What was the exact visual appearance of the wound surface? • iii. Amount of Exudate—How much exudate was trapped under the film? In many cases, accumulated exudate causes the film to lose adherence and the exudates will escape. • iv. Severity of Tissue Reaction—A subjective rating of extent of tissue reaction on a scale of 1 (minimal), 2 (moderate), 3 (extensive). • v. % of Tissue Involved—In some situations, the wound surface contained denatures, friable tissue that could be wiped off with pressure applied to gauze. This test was used to better differentiate denatured tissue from viscous exudates.

Trychophyton rubrum = assay: MIC100 against dermatophyte Trychophyton rubrum; type: cell-based; details: T. rubrum; 125 ppm, day ten
Method: (§3) In order to compare the activity of various antimicrobial peptides, including hexapeptide SEQ ID NO:1 (P0666), MIC were determined against the dermatophytes Trychophyton rubrum and Trychophyton mentagrophytes. The concentration of samples investigated were: 2000, 1000, 500, 250 and 125 μg/ml, respectively. The medium used was modified Sabouraud's media without agar. For a 100 mL of modified Sabouraud medium: 3 g of Sabouraud's dextrose broth (Difco) was mixed into 100 mL of deionized water. The pH was adjusted to 7.0 with 0.1 N NaOH. The solution was autoclaved for thirty minutes. 940 μL of medium was poured into sterile 20 mL test tubes with plastic caps and was allowed to cool.
(§4) 50 μL of […] was added to each 20 mL test tube to make the required concentration. A control tube was composed of 50 μL of saline without sample. For the MIC experiments,
(§5) 10 μL of organism suspended in saline was added to the each 20 mL test tube and vortexed slightly. Each of the test tubes was covered in parafilm and maintained on a shaker at 27° C. at a speed of approximately 100 rpm.
(§6) The growth/inhibition of the organism was observed on a daily basis. […] The Minimum Inhibition Concentration (MIC100) for compounds F1 to F10 against fungus Trychophyton rubrum and Trychophyton mentagrophytes at 10 days.

[4] = system: Trychophyton mentagrophytes; assay: MIC100 against dermatophyte Trychophyton mentagrophytes; type: cell-based; details: T. mentagrophytes; 125 ppm, day ten
Method: as §3, §4, §5, §6

[5] = Systemic toxicity, tail vein injection; type: in vivo; details: mouse, IV, 20 mg/kg
Pseudomonas aeruginosa = type: cell-based; design: MIC, lipid length SAR: unit not given here; details: P.aeruginosa
How it was run: (§7)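 Modified NCCLS broth microdilution; hexapeptide prepared as 10× concentrate in 0.01% acetic acid with 0.2% BSA carrier. Inocula from 0.5 McFarland suspensions diluted to 2×10^5–7×10^5 CFU/ml (bacteria) or 2×10^3–7×10^3 CFU/ml (Candida). MIC = lowest concentration preventing visible turbidity after 16–20 h (bacteria) or 46–50 h (Candida) at 35° C.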

[6] = system: Salmonella typhimurium 14028S; assay: MIC, broth microdilution, S. typhimurium; type: cell-based; design: unit not given here; details: S.typhimurium
How it was run: as §7

S. aureus [7] = assay: Kill curve in 80% serum, S. aureus; type: cell-based
From the text: It should be noted that in addition to MIC data, the lipo-hexapeptides can also be distinguished by their ability to kill bacteria in the presence of biological constituents such as serum. […] This activity, an indicator of therapeutic potential, is not obvious from the MIC data alone.

CCCCCCCC(=O)N[C@@H](CCCCN)C(=O)N[C@@H](Cc1ccccc1)C(=O)N[C@@H](CCCCN)C(=O)N[C@@H](Cc1c[nH]c2ccccc12)C(=O)N1CCC[C@H]1C(=O)N[C@@H](Cc1c[nH]c2ccccc12)C(N)=O [SEQ ID NO:55] (Octanoyl-KFKWPW-NH2)
synergy with clotrimazole (in words) [1]: exhibits synergy
synergy with polymyxin B (in words) (P. aeruginosa): displayed synergistic activity
LTA binding (in words) (Lipoteichoic acid (LTA)): fail to bind LTA
ability to kill S. aureus in serum (in words) (MRSA): increased ability
killing in vaginal simulant (in words) (S. aureus [2]): killing
killing in vaginal simulant (in words) (C. albicans): killing
tissue reaction (in words) [3]: mild

KFKWPW-NH2 [SEQ ID NO:1]
growth of organism (Trychophyton rubrum): only a slight growth
growth of organism [4]: only a slight growth
Result (systemic toxicity) ([5]; solvent water): did not elicit systemic toxicity

KYKKALKKLAKLL-NH2 [SEQ ID NO:92]
Result (systemic toxicity) ([5]; solvent ringers): 3/3 dead

Und-KFKWPW-NH2 (Undecanoyl-KFKWPW-NH2; SMILES CCCCCCCCCCC(=O)N[C@@H](CCCCN)C(=O)N[C@@H](Cc1ccccc1)C(=O)N[C@@H](CCCCN)C(=O)N[C@@H](Cc1c[nH]c2ccccc12)C(=O)N1CCC[C@H]1C(=O)N[C@@H](Cc1c[nH]c2ccccc12)C(N)=O) [SEQ ID NO: 79]
MIC, lipid length SAR (Pseudomonas aeruginosa): 8-16
MIC, lipid length SAR [6]: 8-16
killing of S. aureus in 80% serum (in words) (S. aureus [7]): perform very well

Reference: patent US7407940B2, “Antimicrobial hexapeptides” (Helix BioMedix Inc., priority 2005, dated 2008)
